# From patent US20100249418A1, “NOVEL COMPOUND HAVING AFFINITY FOR AMYLOID” (NIHON MEDI-PHYSICS CO., LTD., priority 2007, published 2010)
# Read-outs that look alike come from different tables or passages of the source.
# Key:
# [1] = [125I]-labeled, normal mice, cited from earlier work; for Transfer into brain: 2 minutes after administration
# [2] = Measurement of partition coefficient based on the octanol extraction method (log Poctanol); format: physicochemical; settings: octanol / 10 mmol/L phosphate buffer (pH 7.4)
# Procedure: Partition coefficients based on the octanol extraction method (hereinafter referred to as log Poctanol) were measured, which are generally known as an indicator of permeability of compounds through the blood-brain barrier (hereinafter referred to as BBB).
# Each diethyl ether solution of Compound 1, Compound 2, Compound 3 and Compound 4 as well as a diethyl ether solution of [^123I]-IMPY were each diluted with 10 mg/mL ascorbic acid-containing physiological saline solution, and adjusted to a radioactive concentration of 27-30 MBq/mL. To 2 mL of octanol, 10 μL each of these solutions was added, and 2 mL of 10 mmol/L phosphate buffer (pH 7.4) was added, followed by stirring for 30 seconds. After each mixture was centrifuged (2000 rpm×60 min.) with a low-speed centrifuge (type: CTD4, manufactured by Hitachi Koki Co., Ltd), the octanol layer and the water layer were sampled each in an amount of 1 mL, and subjected to measurement of radioactivity count with an autowell gamma system (Type: ARC-301B, manufactured by Aloka). Using the obtained radioactivity count, log Poctanol was calculated in accordance with the equation (1).
# [3] = Measurement of transferability into brain and clearance (radioactive accumulation in brain after intravenous injection); format: in vivo, male Wistar rats; settings: rats; for Radioactive accumulation per unit weight, After 2 min. / Radioactive accumulation per unit weight, After 5 min. / Radioactive accumulation per unit weight, After 30 min. / Radioactive accumulation per unit weight, After 60 min.: brain; for Radioactive accumulation per unit weight, After 2 min.: 2 min after injection; for Radioactive accumulation per unit weight, After 5 min.: 5 min after injection; for Radioactive accumulation per unit weight, After 30 min.: 30 min after injection; for Radioactive accumulation per unit weight, After 60 min.: 60 min after injection; for Transferability to brain and clearance from brain (in words): 2 to 60 min
# Procedure: Using Compound 1, Compound 2, Compound 3 and Compound 4, a time course change of radioactive accumulation in brain of male Wistar rats (7-week old) was measured.
# Compound 1 in 10 mg/mL ascorbic acid-containing physiological saline solution (27 MBq/mL in radioactive concentration), Compound 2 in 10 mg/mL ascorbic acid-containing physiological saline solution (27 MBq/mL in radioactive concentration), Compound 3 in 10 mg/mL ascorbic acid-containing physiological saline solution (28 MBq/mL in radioactive concentration) and Compound 4 in 10 mg/mL ascorbic acid-containing physiological saline solution (30 MBq/mL in radioactive concentration) were prepared to obtain sample solutions. The sample solutions were injected under thiopental anesthesia into the tail vein of the male Wistar rats (7-week old) (dosage: 0.05 mL, dosed radioactivity: 1.4-1.5 MBq equivalent). The rats were sacrificed by bleeding from abdominal artery, and brains were removed and subjected to measurement of mass of brains and further subjected to measurement of radioactivity (hereinafter referred to as A in this Example) with a single channel analyzer (detector type: SP-20 manufactured by OHYO KOKEN KOGYO Co., Ltd.) 2, 5, 30 and 60 minutes after the injection. Further, the radioactivity level of the rest of the whole body was measured in the same manner as above (hereinafter referred to as B in this Example). Using these measurement results, radioactive accumulation per unit weight of brain (% ID/g) at the respective time points of dissection was calculated in accordance with the following formula (2) (Examples 19 to 22).
# Separately, [^123I]-IMPY in 10 mg/mL ascorbic acid-containing physiological saline solution (16 MBq/mL in radioactive concentration) was prepared, the same procedure as above was conducted, and radioactive accumulation per unit weight of brain (% ID/g) at the respective time points of dissection was calculated (Comparative Example 1).
# Meanwhile, three animals were used for all Examples and Comparative Example 2 at the respective time points.
# [4] = reported in WO03/106439; cited from earlier work
# [5] = system: amyloid; settings: [125I]-labeled compounds, cited from earlier work
# [6] = [11C]-labeled, rats; cited from earlier work
# [7] = system: Salmonella typhimurium TA98 and TA100; assay: Reverse mutation test (Ames test), overall statement for both strains; format: cell-based
# Procedure: (§1) In order to examine gene mutagenicity of Compound 5, reverse mutation test using Salmonella typhimurium TA98 and TA100 (hereinafter referred to as Ames test) was conducted.
# (§2) The test was conducted without addition of S9mix and with addition of S9mix. Dimethylsulfoxide (hereinafter referred to as DMSO) was used as a negative control. A positive control was 2-(2-furyl)-3-(5-nitro-2-furyl)acrylamide (hereinafter referred to as AF-2) in case S9mix was not added, and 2-aminoanthracene (hereinafter referred to as 2-AA) in case S9mix was added.
# (§3) As a sample solution to be added to a test plate, a solution at maximum concentration in which Compound 5 was dissolved in DMSO (concentration of compound: 50 mg/mL) and a sample solution to be added to a test plate at each concentration in which a solution at maximum concentration was diluted with DMSO were prepared. […]
# [8] = system: Salmonella typhimurium TA100; assay: Reverse mutation test (Ames test), TA100; format: cell-based
# Procedure: as §1, §2, §3
# [9] = system: Salmonella typhimurium TA98; assay: Reverse mutation test (Ames test), TA98; format: cell-based
# Procedure: as §1, §2, §3
Compound,logPoctanol value [2],"Radioactive accumulation per unit weight, After 2 min. [3] [% ID/g]","Radioactive accumulation per unit weight, After 5 min. [3] [% ID/g]","Radioactive accumulation per unit weight, After 30 min. [3] [% ID/g]","Radioactive accumulation per unit weight, After 60 min. [3] [% ID/g]",Transferability to brain and clearance from brain (in words) [3],further results
"CN(C)c1ccc(-c2nc3ccc(I)cc3s2)cc1 [TZDM, 6-iodo-2-[4′-(N,N-dimethylamino)phenyl]benzothiazole]",,,,,,,Transfer into brain [1]: transferred into brain; Clearance from normal tissues [1]: insufficient in clearance from normal tissues
"CN(C)c1ccc(/C=C/c2ccc(I)cc2)cc1 [m-I-SB, (E)-4-dimethylamino-4′-iodostilbene]",,,,,,,Transfer into brain [1]: transferred into brain; Clearance from normal tissues [1]: insufficient in clearance from normal tissues
"CN(C)c1ccc(-c2cn3cc([123I])ccc3n2)cc1 [[^123I]-IMPY, reference compound]",1.9,1.19,0.97,0.23,0.09,excellent transferability to brain and rapid clearance from brain,
"CN(C)c1ccc(-c2cn3cc(I)ccc3n2)cc1 [IMPY, 6-iodo-2-[4′-(N,N-dimethylamino)phenyl]imidazo[1,2-a]pyridine]",,,,,,,Reverse mutation test result [4]: positive; Transfer to brain and accumulation at amyloid ([5]; after administration): transferring to brain and accumulating at amyloid after administration; Clearance from normal tissues [5]: rapid clearance from normal tissues
"Cc1c(-c2ccc(F)cc2)nc2ccc([123I])cn12 [Compound 1, 2-(4′-fluorophenyl)-6-[^123I]iodo-3-methylimidazo[1,2-a]pyridine]",2.3,0.91,0.60,0.08,0.03,excellent transferability to brain and rapid clearance from brain,
"CNc1ccc(/C=C/c2ccc(O)cc2)cc1 [SB-13, (E)-4-methylamino-4′-hydroxystilbene]",,,,,,,Clearance from normal tissues [6]: it cannot be said that the clearance is sufficiently fast
"CC(=C(C#N)C#N)c1ccc2cc(N(C)CCF)ccc2c1 [FDDNP, 2-(1-{6-[(2-fluoroethyl)(methyl)amino]-2-naphthyl}ethylidene)malononitrile]",,,,,,,Reverse mutation test result [4]: positive
"CN(C)c1ccc(-c2nc3ccc(I)cc3o2)cc1 [IBOX, 6-iodo-2-[4′-(N,N-dimethylamino)phenyl]benzoxazole]",,,,,,,Transfer into brain [1]: transferred into brain; Clearance from normal tissues [1]: insufficient in clearance from normal tissues
"2-(4′-hydroxyphenyl)-6-[^123I]iodo-3-methylimidazo[1,2-a]pyridine [Compound 3]",2.5,0.50,0.34,0.05,0.01,excellent transferability to brain and rapid clearance from brain,
"Cc1c(-c2ccc(OCCO)cc2)nc2ccc(I)cn12 [Compound 5, 2-[4′-(2″-hydroxyethoxy)phenyl]-6-iodo-3-methylimidazo[1,2-a]pyridine]",,,,,,,"Ames test judgement (mutagenicity) ([7]; TA98 and TA100, with and without S9mix): negative in the Ames test and has no mutagenicity; Mutagenicity, TA100, with addition of S9mix ([8]; with addition of S9mix): Negative; Mutagenicity, TA100, without addition of S9mix ([8]; without addition of S9mix): Negative; Mutagenicity, TA98, with addition of S9mix ([9]; with addition of S9mix): Negative; Mutagenicity, TA98, without addition of S9mix ([9]; without addition of S9mix): Negative"
"3-cyano-2-[4′-(2″-hydroxyethoxy)phenyl]-6-[^123I]iodoimidazo[1,2-a]pyridine [Compound 4]",3.0,0.82,0.67,0.18,0.04,excellent transferability to brain and rapid clearance from brain,
"2-[4′-(2″-hydroxyethoxy)phenyl]-6-[^123I]iodo-3-methylimidazo[1,2-a]pyridine [Compound 2]",2.2,0.57,0.36,0.05,0.01,excellent transferability to brain and rapid clearance from brain,"Number of reverse mutation colonies relative to the group treated with the negative control ([7]; regardless of addition of S9mix and the addition amount of sample, negative control DMSO): less than two times"
